Assay results published in ChEMBL document CHEMBL3745645, “Synthesis, in vitro antitumor activity, dihydrofolate reductase inhibition, DNA intercalation and structure-activity relationship studies of 1,3,5-triazine analogues” (Bioorg Med Chem Lett, 2016).
Active and inactive are the calls of the source. The rule behind the calls is not given here.

How the values were obtained:
[1] = test system: SN12C; assay: Cytotoxicity against human SN12C cells at 10 uM after 48 hrs by SRB assay; assay type: functional; conditions: read-out: GI
[2] = Cytotoxicity against human DU145 cells at 10 uM after 48 hrs by SRB assay; assay type: functional; conditions: DU-145, 48 h, read-out: GI
[3] = test system: MDA-MB-231; assay: Cytotoxicity against human MDA-MB-231 cells at 10 uM after 48 hrs by SRB assay; assay type: functional
[4] = test system: T47D; assay: Cytotoxicity against human T47D cells at 10 uM after 48 hrs by SRB assay; assay type: functional
[5] = test system: MDA-MB-468; assay: Cytotoxicity against human MDA-MB-468 cells at 10 uM after 48 hrs by SRB assay; assay type: functional
[6] = test system: CCRF-CEM; assay: Cytotoxicity against human CCRF-CEM cells after 48 hrs by SRB assay; assay type: functional
[7] = Cytotoxicity against human HL-60(TB) cells after 48 hrs by SRB assay; assay type: functional; conditions: HL-60, 48 h, read-out: LC50 (the source's name)
[8] = test system: K562; assay: Cytotoxicity against human K562 cells after 48 hrs by SRB assay; assay type: functional; conditions: K562, 48 h
[9] = Cytotoxicity against human RPMI8226 cells after 48 hrs by SRB assay; assay type: functional; conditions: RPMI-8226, 48 h, read-out: LC50 (the source's name)
[10] = test system: SR; assay: Cytotoxicity against human SR cells after 48 hrs by SRB assay; assay type: functional
[11] = Cytotoxicity against human LOXIMVI cells after 48 hrs by SRB assay; assay type: functional; conditions: LOX IMVI, pooled result: one value given for 9 cell lines, strains, targets or settings
[12] = Cytotoxicity against human IGROV1 cells after 48 hrs by SRB assay; assay type: functional; conditions: IGROV-1, 48 h, pooled result: one value given for 7 cell lines, strains, targets or settings
[13] = Cytotoxicity against human PC3 cells after 48 hrs by SRB assay; assay type: functional; conditions: PC-3, 48 h
[14] = Cytotoxicity against human DU145 cells after 48 hrs by SRB assay; assay type: functional; conditions: DU-145, 48 h, read-out: LC50 (the source's name)
[15] = test system: MCF7; assay: Cytotoxicity against human MCF7 cells after 48 hrs by SRB assay; assay type: functional; conditions: MCF7, 48 h, pooled result: one value given for 6 cell lines, strains, targets or settings
[16] = biological target: T1, Dihydrofolate reductase (Homo sapiens, UniProt P00374); assay: Inhibition of human recombinant DHFR expressed in Escherichia coli by spectrophotometric analysis
T1 sequence (P00374 whole entry): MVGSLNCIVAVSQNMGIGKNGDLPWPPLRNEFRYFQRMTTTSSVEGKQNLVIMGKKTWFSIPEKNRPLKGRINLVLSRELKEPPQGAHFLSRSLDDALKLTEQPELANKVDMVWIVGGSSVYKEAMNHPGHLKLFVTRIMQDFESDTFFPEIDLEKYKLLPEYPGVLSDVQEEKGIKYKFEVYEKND

[17] = test system: CCRF-CEM; assay: Cytotoxicity against human CCRF-CEM cells at 10 uM after 48 hrs by SRB assay; assay type: functional
[18] = Cytotoxicity against human MOLT4 cells at 10 uM after 48 hrs by SRB assay; assay type: functional; conditions: MOLT-4, 48 h, read-out: GI
[19] = test system: SR; assay: Cytotoxicity against human SR cells at 10 uM after 48 hrs by SRB assay; assay type: functional
[20] = Cytotoxicity against human HOP92 cells at 10 uM after 48 hrs by SRB assay; assay type: functional; conditions: HOP-92, 48 h, read-out: GI
[21] = test system: NCI-H226; assay: Cytotoxicity against human NCI-H226 cells at 10 uM after 48 hrs by SRB assay; assay type: functional; conditions: NCI-H226, 48 h, read-out: GI
[22] = test system: NCI-H460; assay: Cytotoxicity against human NCI-H460 cells at 10 uM after 48 hrs by SRB assay; assay type: functional; conditions: NCI-H460, 48 h, read-out: GI
[23] = test system: NCI-H522; assay: Cytotoxicity against human NCI-H522 cells at 10 uM after 48 hrs by SRB assay; assay type: functional
[24] = test system: HT-29; assay: Cytotoxicity against human HT-29 cells at 10 uM after 48 hrs by SRB assay; assay type: functional
[25] = test system: KM12; assay: Cytotoxicity against human KM12 cells at 10 uM after 48 hrs by SRB assay; assay type: functional; conditions: KM12, 48 h, read-out: GI
[26] = Cytotoxicity against human SW620 cells at 10 uM after 48 hrs by SRB assay; assay type: functional; conditions: SW-620, 48 h, read-out: GI
[27] = Cytotoxicity against human SF268 cells at 10 uM after 48 hrs by SRB assay; assay type: functional; conditions: SF-268, 48 h, read-out: GI
[28] = test system: Malme-3M; assay: Cytotoxicity against human MALME-3M cells at 10 uM after 48 hrs by SRB assay; assay type: functional
[29] = test system: SK-MEL-2; assay: Cytotoxicity against human SK-MEL-2 cells at 10 uM after 48 hrs by SRB assay; assay type: functional
[30] = test system: SK-MEL-5; assay: Cytotoxicity against human SK-MEL-5 cells at 10 uM after 48 hrs by SRB assay; assay type: functional; conditions: SK-MEL-5, 48 h, read-out: GI
[31] = Cytotoxicity against human OVCAR5 cells at 10 uM after 48 hrs by SRB assay; assay type: functional; conditions: OVCAR-5, 48 h, read-out: GI
[32] = Cytotoxicity against human OVCAR8 cells at 10 uM after 48 hrs by SRB assay; assay type: functional; conditions: OVCAR-8, 48 h, read-out: GI
[33] = Cytotoxicity against human SKOV3 cells at 10 uM after 48 hrs by SRB assay; assay type: functional; conditions: SK-OV-3, 48 h, read-out: GI
[34] = test system: A498; assay: Cytotoxicity against human A498 cells at 10 uM after 48 hrs by SRB assay; assay type: functional; conditions: A498, 48 h, read-out: GI
[35] = Cytotoxicity against human RXF393 cells at 10 uM after 48 hrs by SRB assay; assay type: functional; conditions: RXF 393, 48 h, read-out: GI
[36] = test system: NCI-H322M; assay: Cytotoxicity against human NCI-H322M cells at 10 uM after 48 hrs by SRB assay; assay type: functional; conditions: read-out: GI
[37] = Cytotoxicity against human COLO205 cells at 10 uM after 48 hrs by SRB assay; assay type: functional; conditions: COLO 205, 48 h, read-out: GI
[38] = Cytotoxicity against human SF539 cells at 10 uM after 48 hrs by SRB assay; assay type: functional; conditions: SF-539, 48 h, read-out: GI
[39] = test system: U-251; assay: Cytotoxicity against human U251 cells at 10 uM after 48 hrs by SRB assay; assay type: functional; conditions: U-251, 48 h, read-out: GI
[40] = Cytotoxicity against human LOXIMVI cells at 10 uM after 48 hrs by SRB assay; assay type: functional; conditions: LOX IMVI, read-out: GI
[41] = Cytotoxicity against human OVCAR3 cells at 10 uM after 48 hrs by SRB assay; assay type: functional; conditions: OVCAR-3, 48 h, read-out: GI
[42] = pooled result: one value given for 6 cell lines, strains, targets or settings
[43] = pooled result: one value given for 2 cell lines, strains, targets or settings

Question: What does the source list for `Cc1nc2cc(Nc3nc(Nc4ccc(F)cc4)nc(N4CCN(C)CC4)n3)ccc2n1Cc1ccccc1`?
Answer: inhibition of growth at 10 µM [1]: 65.1%; inhibition of growth at 10 µM [2]: 83.3%; growth inhibition (GI) [3]: Active; growth inhibition (GI) [4]: Active; growth inhibition (GI) [5]: Active; LC50 [6]: 8.47 µM; GI50 [6, 42]: 1.43 µM; TGI [6, 42]: 4.04 µM; CC50 [7]: 8.47 µM; LC50 [8]: 8.47 µM; CC50 [9]: 8.47 µM; LC50 (concentration killing 50% of cells) [10]: 8.47 µM; GI50 [11]: 1.81 µM; LC50 [11]: 6.27 µM; TGI [11]: 3.37 µM; GI50 [12]: 2.16 µM; LC50 (concentration killing 50% of cells) [12]: 15.5 µM; TGI [12]: 5.25 µM; LC50 [13]: 20.5 µM; GI50 [13, 43]: 1.89 µM; TGI [13, 43]: 4.38 µM; CC50 [14]: 20.5 µM; GI50 [15]: 1.61 µM; LC50 (concentration killing 50% of cells) [15]: 7.54 µM; TGI [15]: 3.6 µM; IC50 [16]: 0.31 µM; growth inhibition (GI) [17]: Active; inhibition of growth at 10 µM [18]: 98.9%; growth inhibition (GI) [19]: Active; inhibition of growth at 10 µM [20]: 97.5%; inhibition of growth at 10 µM [21]: 35%; inhibition of growth at 10 µM [22]: 96.6%; growth inhibition (GI) [23]: Active; growth inhibition (GI) [24]: Active; inhibition of growth at 10 µM [25]: 83%; inhibition of growth at 10 µM [26]: 84.4%; inhibition of growth at 10 µM [27]: 85.4%; growth inhibition (GI) [28]: Active; growth inhibition (GI) [29]: Active; inhibition of growth at 10 µM [30]: 29.1%; inhibition of growth at 10 µM [31]: 57.1%; inhibition of growth at 10 µM [32]: 99.4%; inhibition of growth at 10 µM [33]: 31.3%; inhibition of growth at 10 µM [34]: 70.8%

Question: For `Cc1nc2ccc(Nc3nc(NCCN)nc(Nc4ccc(F)cc4)n3)cc2n1Cc1ccccc1`, which inhibition of growth at 10 µM [35] is on record?
Answer: Its inhibition of growth at 10 µM is 25.8%.

Question: And the inhibition of growth at 10 µM [1]?
Answer: The inhibition of growth at 10 µM was 24.8%.

Question: What about the inhibition of growth at 10 µM [2] of the same molecule?
Answer: The inhibition of growth at 10 µM was 8.56%.

Question: What about the inhibition of growth at 10 µM ([3]; MDA-MB-231, 48 h, read-out: GI) of the same molecule?
Answer: Its inhibition of growth at 10 µM is 42.9%.

Question: And the inhibition of growth at 10 µM ([4]; read-out: GI)?
Answer: The inhibition of growth at 10 µM was 23.2%.

Question: What about the inhibition of growth at 10 µM ([5]; MDA-MB-468, 48 h, read-out: GI) of the same molecule?
Answer: Its inhibition of growth at 10 µM is 49.5%.

Question: And the inhibition of growth at 10 µM ([17]; read-out: GI)?
Answer: The inhibition of growth at 10 µM was 51.9%.

Question: And the inhibition of growth at 10 µM [18]?
Answer: Its inhibition of growth at 10 µM is 40.7%.

Question: And the inhibition of growth at 10 µM ([19]; read-out: GI)?
Answer: Its inhibition of growth at 10 µM is 88.9%.

Question: What about the inhibition of growth at 10 µM [20] of the same molecule?
Answer: Its inhibition of growth at 10 µM is 56.8%.

Question: And the inhibition of growth at 10 µM [21]?
Answer: Its inhibition of growth at 10 µM is 13.8%.

Question: What about the inhibition of growth at 10 µM [36] of the same molecule?
Answer: Its inhibition of growth at 10 µM is 7.76%.

Question: And the inhibition of growth at 10 µM [22]?
Answer: Its inhibition of growth at 10 µM is 21.8%.

Question: And the inhibition of growth at 10 µM ([23]; NCI-H522, 48 h, read-out: GI)?
Answer: The inhibition of growth at 10 µM was 31%.

Question: And the inhibition of growth at 10 µM [37]?
Answer: Its inhibition of growth at 10 µM is 33.6%.

Question: What about the inhibition of growth at 10 µM ([24]; HT-29, 48 h, read-out: GI) of the same molecule?
Answer: The inhibition of growth at 10 µM was 55.5%.

Question: And the inhibition of growth at 10 µM [25]?
Answer: The inhibition of growth at 10 µM was 26.8%.

Question: And the inhibition of growth at 10 µM [26]?
Answer: Its inhibition of growth at 10 µM is 1.71%.

Question: And the inhibition of growth at 10 µM [27]?
Answer: The inhibition of growth at 10 µM was 19.2%.

Question: What about the inhibition of growth at 10 µM [38] of the same molecule?
Answer: Its inhibition of growth at 10 µM is 0.19%.

Question: And the inhibition of growth at 10 µM [39]?
Answer: The inhibition of growth at 10 µM was 46.5%.

Question: What about the inhibition of growth at 10 µM [40] of the same molecule?
Answer: The inhibition of growth at 10 µM was 30%.

Question: What about the inhibition of growth at 10 µM ([28]; read-out: GI) of the same molecule?
Answer: Its inhibition of growth at 10 µM is 26%.

Question: And the inhibition of growth at 10 µM ([29]; SK-MEL-2, 48 h, read-out: GI)?
Answer: The inhibition of growth at 10 µM was 19.9%.

Question: And the inhibition of growth at 10 µM [30]?
Answer: The inhibition of growth at 10 µM was 25.5%.

Question: What about the inhibition of growth at 10 µM [41] of the same molecule?
Answer: Its inhibition of growth at 10 µM is 6.85%.

Question: And the inhibition of growth at 10 µM [31]?
Answer: The inhibition of growth at 10 µM was 6.17%.

Question: And the inhibition of growth at 10 µM [32]?
Answer: The inhibition of growth at 10 µM was 17.7%.

Question: And the inhibition of growth at 10 µM [33]?
Answer: Its inhibition of growth at 10 µM is 13.2%.

Question: What about the inhibition of growth at 10 µM [34] of the same molecule?
Answer: The inhibition of growth at 10 µM was 25.5%.
